Measured values reported in PMC9090415, “Discovery of small molecule inhibitors of Plasmodium falciparum apicoplast DNA polymerase” (Journal of Enzyme Inhibition and Medicinal Chemistry, 2022).

Biological target: P. falciparum apicoplast DNA polymerase (Pf-apPOL) (Plasmodium falciparum, UniProt Q8ILY1)
Test: Fluorescence-based high-throughput DNA polymerase assay (molecular beacon), primary screen and dose-response
Format: biochemical
Conditions: for DNA Pol: 90 min, 10 µM; for IC50: supplemental file 2, sheet IC50 nontoxic compounds, Pf-apPOL
Summary of the method: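 Single-point screening used 10 µM compound with 20 nM polymerase, 20 nM hairpin substrate and 6 µM dNTPs for 90 min at 25 °C. Confirmatory titrations (2.5–80 µM) followed fluorescence at three times, and IC50 was derived from a fit including a cooperativity term n.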

[1] = 'DNA Pol' of the 186 hits list (screen value)
[2] = primary screen value, "DNA Pol"

Chain of P. falciparum apicoplast DNA polymerase (Pf-apPOL) (Q8ILY1 entry or part of it): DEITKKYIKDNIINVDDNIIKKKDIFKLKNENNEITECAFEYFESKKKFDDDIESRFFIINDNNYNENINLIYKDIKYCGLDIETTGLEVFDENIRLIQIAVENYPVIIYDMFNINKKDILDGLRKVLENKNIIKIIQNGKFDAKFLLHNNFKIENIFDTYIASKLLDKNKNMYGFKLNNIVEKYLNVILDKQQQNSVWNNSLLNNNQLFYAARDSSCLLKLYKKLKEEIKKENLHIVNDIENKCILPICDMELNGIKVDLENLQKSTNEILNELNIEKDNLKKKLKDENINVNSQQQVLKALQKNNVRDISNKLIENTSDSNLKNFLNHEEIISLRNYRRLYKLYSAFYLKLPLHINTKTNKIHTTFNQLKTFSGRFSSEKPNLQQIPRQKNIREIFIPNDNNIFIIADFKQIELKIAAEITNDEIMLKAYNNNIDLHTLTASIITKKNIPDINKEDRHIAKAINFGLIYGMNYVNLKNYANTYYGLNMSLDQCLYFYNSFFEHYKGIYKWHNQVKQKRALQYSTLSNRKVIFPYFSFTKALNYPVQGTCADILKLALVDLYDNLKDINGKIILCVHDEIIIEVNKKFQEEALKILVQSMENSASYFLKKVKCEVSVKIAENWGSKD

With `Cc1ccc(CNC(=O)c2cnn3c(O)cc(CSc4ccc(Cl)cc4)nc23)cc1` [Molecule 99, Cc1ccc(cc1)CNC(=O)c1cnn2c1nc(CSc1ccc(cc1)Cl)cc2O] the “DNA Pol” value [1] was 67, the “% inhibition Apo pol 10'” value (DRC-1, conc 2.5) was 17.7402% and the “% inhibition Apo pol 10'” value (DRC-1, conc 5) was 14.3%. The “% inhibition Apo pol 10'” value (DRC-1, conc 10) was 59.9515%, the “% inhibition Apo pol 10'” value (DRC-1, conc 20) was 87.9776% and the “% inhibition Apo pol 10'” value (DRC-1, conc 40) was 95.4401%. The “% inhibition Apo pol 10'” value (DRC-1, conc 80) was 98.3006%, the “% inhibition Apol 90'” value (DRC-1, conc 2.5) was 16.0319% and the “% inhibition Apol 90'” value (DRC-1, conc 5) was 10.3916%. For the same compound, the “% inhibition Apol 90'” value (DRC-1, conc 10) was 57.1077%, the “% inhibition Apol 90'” value (DRC-1, conc 20) was 85.3091% and the “% inhibition Apol 90'” value (DRC-1, conc 40) was 92.0772%. For the same compound, the “% inhibition Apol 90'” value (DRC-1, conc 80) was 96.0616%, the “% inhibition apPOL 180'” value (DRC-1, conc 2.5) was 7.151% and the “% inhibition apPOL 180'” value (DRC-1, conc 5) was 1.596%. For the same compound, the “% inhibition apPOL 180'” value (DRC-1, conc 10) was 45.1863%, the “% inhibition apPOL 180'” value (DRC-1, conc 20) was 80.2247% and the “% inhibition apPOL 180'” value (DRC-1, conc 40) was 89.0926%. The “% inhibition apPOL 180'” value (DRC-1, conc 80) was 94.6304%, the “% inhibition Apo pol 5'” value (DRC-2, conc 2.5) was 29% and the “% inhibition Apo pol 5'” value (DRC-2, conc 5) was 42%. For the same compound, the “% inhibition Apo pol 5'” value (DRC-2, conc 10) was 44%, the “% inhibition Apo pol 5'” value (DRC-2, conc 20) was 58% and the “% inhibition Apo pol 5'” value (DRC-2, conc 40) was 67%. The “% inhibition Apo pol 5'” value (DRC-2, conc 80) was 68%, the “% inhibition Apo pol 5'” value (DRC-2, concentration 80) was 68% and the “% inhibition Apol 40'” value (DRC-2, conc 2.5) was 32%. The “% inhibition Apol 40'” value (DRC-2, conc 5) was 49%, the “% inhibition Apol 40'” value (DRC-2, conc 10) was 50% and the “% inhibition Apol 40'” value (DRC-2, conc 20) was 68%. The “% inhibition Apol 40'” value (DRC-2, conc 40) was 78%, the “% inhibition Apol 40'” value (DRC-2, conc 80) was 81% and the “% inhibition Apol 40'” value (DRC-2, concentration 5) was 49%. The “% inhibition Apol 40'” value (DRC-2, concentration 20) was 68%, the “% inhibition ApPOL 90'” value (DRC-2, conc 2.5) was 31% and the “% inhibition ApPOL 90'” value (DRC-2, conc 5) was 49%. For the same compound, the “% inhibition ApPOL 90'” value (DRC-2, conc 10) was 49%, the “% inhibition ApPOL 90'” value (DRC-2, conc 20) was 69% and the “% inhibition ApPOL 90'” value (DRC-2, conc 40) was 80%. The “% inhibition ApPOL 90'” value (DRC-2, conc 80) was 84%, the “% inhibition ApPOL 90'” value (DRC-2, concentration 5) was 49% and the “% inhibition ApPOL 90'” value (DRC-2, concentration 10) was 49%. The “% inhibition ApPOL 90'” value (DRC-2, concentration 40) was 80%, the “% inhibition apPOL 180'” value (DRC-2, conc 2.5) was 25% and the “% inhibition apPOL 180'” value (DRC-2, conc 5) was 40%. For the same compound, the “% inhibition apPOL 180'” value (DRC-2, conc 10) was 41%, the “% inhibition apPOL 180'” value (DRC-2, conc 20) was 66% and the “% inhibition apPOL 180'” value (DRC-2, conc 40) was 80%. The “% inhibition apPOL 180'” value (DRC-2, conc 80) was 86%, the “% inhibition apPOL 180'” value (DRC-2, concentration 40) was 80% and the “DNA Pol” value [2] was 67.
With `Cc1ccc(CNC(=O)c2cnn3c(O)cc(CSc4ccc(Cl)cc4)nc23)cc1` [Molecule 99] the IC50 was 9.14 µM.
With `O=C(O)c1cccc(N2N=C(C(F)(F)F)/C(=C/c3ccc(-c4ccccc4[N+](=O)[O-])o3)C2=O)c1` [Molecule 100, O=C1N(N=C(/C/1=C/c1ccc(o1)c1ccccc1N(=O)=O)C(F)(F)F)c1cccc(c1)C(=O)O] the “% inhibition Apo pol 10'” value (DRC-1, concentration 2.5) was 26.1484%, the “% inhibition Apo pol 10'” value (DRC-1, concentration 5) was 12.0969% and the “% inhibition Apo pol 10'” value (DRC-1, concentration 10) was 67.0777%. The “% inhibition Apo pol 10'” value (DRC-1, concentration 20) was 85.2952%, the “% inhibition Apo pol 10'” value (DRC-1, concentration 40) was 91.4411% and the “% inhibition Apo pol 10'” value (DRC-1, concentration 80) was 91.0692%. For the same compound, the “% inhibition Apol 90'” value (DRC-1, concentration 2.5) was 19.5679%, the “% inhibition Apol 90'” value (DRC-1, concentration 5) was 4.613% and the “% inhibition Apol 90'” value (DRC-1, concentration 10) was 58.3032%. For the same compound, the “% inhibition Apol 90'” value (DRC-1, concentration 20) was 83.4364%, the “% inhibition Apol 90'” value (DRC-1, concentration 40) was 89.1977% and the “% inhibition Apol 90'” value (DRC-1, concentration 80) was 89.0036%. For the same compound, the “% inhibition apPOL 180'” value (DRC-1, concentration 2.5) was 13.4923%, the “% inhibition apPOL 180'” value (DRC-1, concentration 5) was 1.454% and the “% inhibition apPOL 180'” value (DRC-1, concentration 10) was 45.1585%. The “% inhibition apPOL 180'” value (DRC-1, concentration 20) was 77.5112%, the “% inhibition apPOL 180'” value (DRC-1, concentration 40) was 84.5547% and the “% inhibition apPOL 180'” value (DRC-1, concentration 80) was 85.8771%. For the same compound, the “% inhibition Apo pol 5'” value (DRC-2, concentration 2.5) was 20%, the “% inhibition Apo pol 5'” value (DRC-2, concentration 5) was 27% and the “% inhibition Apo pol 5'” value (DRC-2, concentration 10) was 47%. The “% inhibition Apo pol 5'” value (DRC-2, concentration 20) was 55%, the “% inhibition Apo pol 5'” value (DRC-2, concentration 40) was 63% and the “% inhibition Apo pol 5'” value (DRC-2, concentration 80) was 64%. The “% inhibition Apol 40'” value (DRC-2, concentration 2.5) was 23%, the “% inhibition Apol 40'” value (DRC-2, concentration 5) was 30% and the “% inhibition Apol 40'” value (DRC-2, concentration 10) was 51%. The “% inhibition Apol 40'” value (DRC-2, concentration 20) was 65%, the “% inhibition Apol 40'” value (DRC-2, concentration 40) was 76% and the “% inhibition Apol 40'” value (DRC-2, concentration 80) was 78%. For the same compound, the “% inhibition ApPOL 90'” value (DRC-2, concentration 2.5) was 21%, the “% inhibition ApPOL 90'” value (DRC-2, concentration 5) was 29% and the “% inhibition ApPOL 90'” value (DRC-2, concentration 10) was 51%. The “% inhibition ApPOL 90'” value (DRC-2, concentration 20) was 65%, the “% inhibition ApPOL 90'” value (DRC-2, concentration 40) was 77% and the “% inhibition ApPOL 90'” value (DRC-2, concentration 80) was 81%. The “% inhibition apPOL 180'” value (DRC-2, concentration 2.5) was 14%, the “% inhibition apPOL 180'” value (DRC-2, concentration 5) was 20% and the “% inhibition apPOL 180'” value (DRC-2, concentration 10) was 43%. The “% inhibition apPOL 180'” value (DRC-2, concentration 20) was 60%, the “% inhibition apPOL 180'” value (DRC-2, concentration 40) was 77% and the “% inhibition apPOL 180'” value (DRC-2, concentration 80) was 84%. For the same compound, the “% inhibition Apo pol 5'” value (conc. 2.5, DRC-2) was 20%, the “% inhibition apPOL 180'” value (conc. 5, DRC-2) was 20% and the “% inhibition Apol 40'” value (conc. 10, DRC-2) was 51%. For the same compound, the “% inhibition ApPOL 90'” value (conc. 10, DRC-2) was 51%, the “% inhibition Apol 40'” value (conc. 20, DRC-2) was 65% and the “% inhibition ApPOL 90'” value (conc. 20, DRC-2) was 65%. The “% inhibition ApPOL 90'” value (conc. 40, DRC-2) was 77%, the “% inhibition apPOL 180'” value (conc. 40, DRC-2) was 77% and the “DNA Pol” value (primary screen value by plate and well) was 55. The “DNA Pol” value (primary screen value of the 186 hits, unit not given) was 55.
Work on `O=C(O)c1cccc(N2N=C(C(F)(F)F)/C(=C/c3ccc(-c4ccccc4[N+](=O)[O-])o3)C2=O)c1` [Molecule 100] yielded an IC50 of 9.62 µM.
`CC(C)CCNC(=O)c1cnn2c(O)cc(CSc3ccc(Cl)cc3)nc12` [Molecule 101, CC(CCNC(=O)c1cnn2c1nc(CSc1ccc(cc1)Cl)cc2O)C] was tested, and the “DNA Pol” value [1] was 47, the “% inhibition Apo pol 10'” value (DRC-1, conc 2.5) was 0.1018% and the “% inhibition Apo pol 10'” value (DRC-1, conc 5) was 10.5875%. The “% inhibition Apo pol 10'” value (DRC-1, conc 10) was 55.0331%, the “% inhibition Apo pol 10'” value (DRC-1, conc 20) was 79.7694% and the “% inhibition Apo pol 10'” value (DRC-1, conc 40) was 93.5546%. The “% inhibition Apo pol 10'” value (DRC-1, conc 80) was 97.7054%, the “% inhibition Apol 90'” value (DRC-1, conc 2.5) was -5.869% and the “% inhibition Apol 90'” value (DRC-1, conc 5) was 6.076%. The “% inhibition Apol 90'” value (DRC-1, conc 10) was 52.4114%, the “% inhibition Apol 90'” value (DRC-1, conc 20) was 78.3109% and the “% inhibition Apol 90'” value (DRC-1, conc 40) was 89.1904%. The “% inhibition Apol 90'” value (DRC-1, conc 80) was 96.2635%, the “% inhibition apPOL 180'” value (DRC-1, conc 2.5) was -11.3834% and the “% inhibition apPOL 180'” value (DRC-1, conc 5) was -2.604%. The “% inhibition apPOL 180'” value (DRC-1, conc 10) was 39.1813%, the “% inhibition apPOL 180'” value (DRC-1, conc 20) was 71.0945% and the “% inhibition apPOL 180'” value (DRC-1, conc 40) was 85.4085%. For the same compound, the “% inhibition apPOL 180'” value (DRC-1, conc 80) was 94.6304%, the “% inhibition Apo pol 5'” value (DRC-2, conc 2.5) was -1.9% and the “% inhibition Apo pol 5'” value (DRC-2, conc 5) was 20%. The “% inhibition Apo pol 5'” value (DRC-2, conc 10) was 55%, the “% inhibition Apo pol 5'” value (DRC-2, conc 20) was 59% and the “% inhibition Apo pol 5'” value (DRC-2, conc 40) was 66%. The “% inhibition Apo pol 5'” value (DRC-2, conc 80) was 69%, the “% inhibition Apo pol 5'” value (DRC-2, concentration 40) was 66% and the “% inhibition Apo pol 5'” value (DRC-2, concentration 80) was 69%. For the same compound, the “% inhibition Apol 40'” value (DRC-2, conc 2.5) was -1.08%, the “% inhibition Apol 40'” value (DRC-2, conc 5) was 24% and the “% inhibition Apol 40'” value (DRC-2, conc 10) was 65%. The “% inhibition Apol 40'” value (DRC-2, conc 20) was 69%, the “% inhibition Apol 40'” value (DRC-2, conc 40) was 76% and the “% inhibition Apol 40'” value (DRC-2, conc 80) was 81%. For the same compound, the “% inhibition Apol 40'” value (DRC-2, concentration 20) was 69%, the “% inhibition ApPOL 90'” value (DRC-2, conc 2.5) was -2.68% and the “% inhibition ApPOL 90'” value (DRC-2, conc 5) was 22%. The “% inhibition ApPOL 90'” value (DRC-2, conc 10) was 66%, the “% inhibition ApPOL 90'” value (DRC-2, conc 20) was 70% and the “% inhibition ApPOL 90'” value (DRC-2, conc 40) was 77%. The “% inhibition ApPOL 90'” value (DRC-2, conc 80) was 83%, the “% inhibition ApPOL 90'” value (DRC-2, concentration 10) was 66% and the “% inhibition apPOL 180'” value (DRC-2, conc 2.5) was -4.21%. For the same compound, the “% inhibition apPOL 180'” value (DRC-2, conc 5) was 16%, the “% inhibition apPOL 180'” value (DRC-2, conc 10) was 60% and the “% inhibition apPOL 180'” value (DRC-2, conc 20) was 66%. The “% inhibition apPOL 180'” value (DRC-2, conc 40) was 75%, the “% inhibition apPOL 180'” value (DRC-2, conc 80) was 85% and the “% inhibition apPOL 180'” value (DRC-2, concentration 20) was 66%. For the same compound, the “DNA Pol” value [2] was 47.
`CC(C)CCNC(=O)c1cnn2c(O)cc(CSc3ccc(Cl)cc3)nc12` [Molecule 101] gave an IC50 of 9.74 µM.
